Active and inactive are the calls of the source. The rule behind the calls is not given here.
Tests used:
[1] = species on record: Homo sapiens; experiment: Inhibition of […] urease using urea as substrate at 100 uM preincubated for 5 min before substrate addition measured after 10 min relative to control
[2] = Toxicity inArtemia salina (brine shrimp) larvae assessed as mortality after 24 hr; type: organism-based; conditions: artemia salina, in vivo; read-out: LD50
[3] = system: Aspergillus flavus; experiment: Antifungal activity against Aspergillus flavus at 200 ug/ml after 7 days; type: functional; conditions: 168 h
[4] = system: Nakaseomyces glabratus; experiment: Antifungal activity against Candida glabrata at 200 ug/ml after 7 days; type: functional; conditions: 168 h
[5] = species on record: Homo sapiens; experiment: Inhibition of […] urease using urea as substrate at 1 uM preincubated for 5 min before substrate addition measured after 10 min relative to control
[6] = species on record: Homo sapiens; experiment: Inhibition of […] urease using urea as substrate at 0.1 uM preincubated for 5 min before substrate addition measured after 10 min relative to control
[7] = system: Lemna aequinoctialis; experiment: Phytotoxicity against Lemna aequinoctialis assessed as growth inhibition at 10 ug/ml; type: functional; conditions: read-out: GI
[8] = system: Candida albicans; experiment: Antifungal activity against Candida albicans at 200 ug/ml after 7 days; type: functional; conditions: 168 h
[9] = species on record: Homo sapiens; experiment: Inhibition of […] urease using urea as substrate at 0.01 uM preincubated for 5 min before substrate addition measured after 10 min relative to control
[10] = system: Microsporum canis; experiment: Antifungal activity against Arthroderma otae at 200 ug/ml after 7 days; type: functional; conditions: 168 h
[11] = system: Fusarium solani; experiment: Antifungal activity against Fusarium solani at 200 ug/ml after 7 days; type: functional; conditions: 168 h
[12] = system: Lemna aequinoctialis; experiment: Phytotoxicity against Lemna aequinoctialis assessed as growth inhibition at 1000 ug/ml; type: functional; conditions: read-out: GI
[13] = system: Lemna aequinoctialis; experiment: Phytotoxicity against Lemna aequinoctialis assessed as growth inhibition at 100 ug/ml; type: functional; conditions: read-out: GI
[14] = species on record: Homo sapiens; experiment: Inhibition of […] urease using urea as substrate at 10 uM preincubated for 5 min before substrate addition measured after 10 min relative to control
[15] = Inhibition of […] urease using urea as substrate preincubated for 5 min before substrate addition measured after 10 min
[16] = species on record: Homo sapiens; experiment: Increase of […] urease using urea as substrate at 0.01 uM preincubated for 5 min before substrate addition measured after 10 min relative to control
[17] = species on record: Homo sapiens; experiment: Increase of […] urease using urea as substrate at 1 uM preincubated for 5 min before substrate addition measured after 10 min relative to control
[18] = species on record: Homo sapiens; experiment: Increase of […] urease using urea as substrate at 0.1 uM preincubated for 5 min before substrate addition measured after 10 min relative to control
[19] = species on record: Homo sapiens; experiment: Increase of […] urease using urea as substrate at 100 uM preincubated for 5 min before substrate addition measured after 10 min relative to control
[20] = species on record: Homo sapiens; experiment: Increase of […] urease using urea as substrate at 10 uM preincubated for 5 min before substrate addition measured after 10 min relative to control

Row | SMILES | inhibition [1] | LC50 at 24 h [2] | inhibition at 200 µg/mL [3] | inhibition at 200 µg/mL [4] | inhibition [5] | inhibition [6] | inhibition of growth at 10 µg/mL [7] | inhibition at 200 µg/mL [8] | inhibition [9] | inhibition at 200 µg/mL [10] | inhibition at 200 µg/mL [11] | inhibition of growth at 1000 µg/mL [12] | inhibition of growth at 100 µg/mL [13] | inhibition [14] | IC50 [15] | Activity [16] | Activity [17] | Activity [18] | Activity [19] | Activity [20]
1 | O=C1Nc2ccc([N+](=O)[O-])cc2/C1=N/NC(=S)Nc1ccccc1C(F)(F)F | 21% | > 1220 µM | 0% | 0% | 30.9% | 23% | 10% | 0% | 21.6% | 20% | 0% | 25% | 15% | 20.9% |  |  |  |  |  | 
2 | CCCCCCNC(=S)N/N=C1\C(=O)Nc2ccc([N+](=O)[O-])cc21 | 40.9% | > 1430 µM | 0% | 0% | 37% | 58% | 25% | 0% | 60% | 50% | 0% | 60% | 35% | 27% | 0.44 µM |  |  |  |  | 
3 | Cc1ccc(NC(=S)N/N=C2\C(=O)Nc3ccc([N+](=O)[O-])cc32)cc1 | 7% | > 1400 µM | 30% | 0% | 4% | inactive | 15% | 0% | 8% | 40% | 30% | 30% | 20% | 4% |  |  |  |  |  | 
4 | O=C1Nc2ccc([N+](=O)[O-])cc2/C1=N/NC(=S)Nc1ccc(I)cc1 | 50% | > 1070 µM | 0% | 0% | 52% | 51% | 5% | 0% | 57% | 0% | 0% | 25% | 10% | 47% | 0.901 µM |  |  |  |  | 
5 | Cc1cccc(NC(=S)N/N=C2\C(=O)Nc3ccc([N+](=O)[O-])cc32)c1 | 34% | > 1400 µM | 0% | 0% | 13.9% | 5.8% | 10% | 0% | 6.5% | 0% | 30% | 25% | 20% | 22% |  |  |  |  |  | 
6 | O=C1Nc2ccc([N+](=O)[O-])cc2/C1=N/NC(=S)Nc1ccc(F)cc1 |  | > 1390 µM | 0% | 0% |  |  | 5% | 0% |  | 20% | 20% | 20% | 15% |  |  | inactive | inactive | inactive | inactive | inactive
7 | COc1ccc(OC)c(NC(=S)N/N=C2\C(=O)Nc3ccc([N+](=O)[O-])cc32)c1 | 11% | > 1240 µM | 40% | 0% | 15.6% | 25.9% | 25% | 0% | 34.5% | 20% | 0% | 35% | 30% | 17.8% |  |  |  |  |  | 
8 | N#Cc1cccc(NC(=S)N/N=C2\C(=O)Nc3ccc([N+](=O)[O-])cc32)c1 | 8.9% | 1160 µM | 20% | 0% | 1.8% | 16% | 5% | 0% | 20.7% | 20% | 15% | 25% | 15% | 12.6% |  |  |  |  |  | 
9 | COc1ccc(NC(=S)N/N=C2\C(=O)Nc3ccc([N+](=O)[O-])cc32)cc1 | 46.6% | > 1340 µM | 20% | 0% | 33.6% | 44% | 10% | 0% | 47.6% | 0% | 0% | 25% | 15% | 38.6% |  |  |  |  |  | 
10 | NC(N)=S [THIOUREA] | 94.3% |  |  |  | 20.9% | 14.5% |  |  | 8.16% |  |  |  |  | 8.09% | 50.1 µM |  |  |  |  | 
11 | COc1ccc(NC(=S)N/N=C2\C(=O)Nc3ccc([N+](=O)[O-])cc32)c(OC)c1 | 37.9% | > 1240 µM | 20% | 0% | 61% | 66.8% | 15% | 0% | 68% | 20% | 0% | 30% | 25% | 53.5% | 27.9 µM |  |  |  |  | 
12 | O=C1Nc2ccc([N+](=O)[O-])cc2/C1=N/NC(=S)Nc1ccc(Br)cc1 | 4% | > 1190 µM | 20% | 0% | 6.6% | 4.5% | 10% | 0% | 18.9% | 0% | 0% | 20% | 15% | 8% |  |  |  |  |  | 
13 | C=CCNC(=S)N/N=C1\C(=O)Nc2ccc([N+](=O)[O-])cc21 | 15.9% | > 1630 µM | 0% | 0% | 12% | 15% | 25% | 0% | 21.6% | 20% | 0% | 50% | 35% | 8% |  |  |  |  |  | 
